Patent US12318368B2, “Physics-driven discovery of novel small therapeutic compounds for use as a BCL-2 inhibitor” (BAHCESEHIR UNIVERSITESI, priority 2020, dated 2025)
pIC50: −log10 of the molar value.

Tested on: HCT-116 cell lines
Experiment: MTT cell proliferation assay
Format: cell-based
Procedure: For cell culture experiments various cancer cell lines, HCT-116 colon cancer, U87-MG glial tumor, MCF7 breast cancer cell lines were used. Cells were seeded with high glucose DMEM medium (Biosera) supplemented with 10% FBS (Gibco) and 1× penicillin/streptomycin (Multicell). Twenty-four hours prior to molecule treatment, 10,000 cells were seeded into each well of 24-well cell culture plates. Molecules were used by preparing 4 mM stock solution in DMSO (Amresco). For molecule treatment, molecule stock solutions were diluted in DMEM with 10% FBS and added onto cells in each corresponding well. Final concentration of vehicle DMSO was 2% at maximum. […] We calculated the number of cells to be seeded to make sure that none of the cells reaches more than 60% confluency during the treatment period, as higher plate confluency levels would slow down cell proliferation independently from the molecule treatment.
Values of half-maximal inhibitory concentration were (IC50) determined by MTT cell proliferation assays. […] 570 nm absorbance values were recorded and IC50 values were calculated by dose response—inhibition curves and nonlinear regression analysis on GraphPad Prism 8 software. […] Following the initial incubation day, molecules were added and after incubation with MTT at 37° C. for 4 hours, formazan was solubilized with DMSO (Sigma-Aldrich, St. Louis, USA) and absorbance was measured at 570 nm. […]

COCCN1C(=O)/C(=C/c2ccc(OCC(=O)Nc3ccc(C)cc3)cc2)S/C1=N\c1ccccc1 [compound of formula I]
proliferation of the HCT-116 cells versus vehicle group (FIG. 1) (HCT-116 cells, compared with vehicle (max 2% DMSO)): reduced proliferation and apoptotic cell structures
pIC50 (Homo sapiens, 72 h, HCT-116 colon cancer cells, MTT, single treatment, three days results, absorbance 570 nm, read-out: IC50 (half-maximal inhibitory concentration)): 4.60
